Holding throughout (type): cell-based
For data set [1], the system named is Plasmodium falciparum chloroquine-resistant W2 clone. The data set is described as follows: anti-HRP2 test on P. falciparum-infected erythrocytes. The settings on record: for IC50: Plasmodium falciparum, read-out: IC50 Plasmodium Falciparum Anti-HRP2; for activity class against P. falciparum: class by IC50. How it is done:
(§1) Briefly, the parasites were kept as described at 37 °C in human erythrocytes (A^+) in complete medium (RPMI 1640 supplemented with 10% human sera blood group A^+, 2% glutamine, and 7.5% NaHCO3) either in Petri dishes in a candle jar or in 25-cm culture flasks in an environment containing a gas mixture atmosphere (3% O2, 5% CO2 and 91% N2). Before testing, the ring-stage parasites were synchronized by sorbitol; the suspension was adjusted for parasitemia and hematocrit as described below for each test used.
(§2) The effects of compounds against the W2 P. falciparum blood cultures were evaluated through incorporation of ^3H hypoxanthine (Perkin Elmer, Waltham, MA, USA) by the parasites. Alternatively, compound effects were also examined using monoclonal antibodies to a commercially available parasite histidine and alanine-rich protein (HRP2) (MPFM ICLLAB-55A®, MPFG55P ICLLAB®, Immunology Consultants Laboratory Inc. (ICL), Portland, OR, USA), as described previously. The [3H]-hypoxanthine assay was performed with 1% of parasitemia and 1% of hematocrit, and the level of isotope incorporation was read in a beta-counter (Perkin Elmer). The anti-HRP2 test was performed with 0.05% parasitemia and 1.5% hematocrit, and the quantification of protein was determined using a specific read at 450 nm in a spectrophotometer (SpectraMax340PC^384, Molecular Devices, Sunnyvale, CA, USA). Drug activities were expressed by the half-maximal inhibitory dose (IC50) compared to the drug-free controls and estimated using the curve-fitting software Origin 8.0 (OriginLab Corporation, Northampton, MA, USA).

The test system is the same in data set [2]. Put plainly: [3H]-hypoxanthine incorporation assay on P. falciparum-infected erythrocytes. The conditions noted are these: read-out: IC50 Plasmodium Falciparum Hypoxanthine. The procedure:
as §1, §2

Data set [3] concerns human hepatoma cell line (HepG2). The settings on record: MTT, 24 h incubation. How it is done:
For in vitro cytotoxicity experiments, the cell monolayer was trypsinized, washed with culture medium, distributed in a flat-bottomed 96-well plate (5 × 10^3 cells/well), and finally incubated for 18 h at 37 °C for cell adherence.
For cytotoxicity testing, we used the (3-(4,5-dimethylthiazol-2-yl)-2,5-diphenyltetrazolium bromide (MTT) assay, performed as described in the literature. The HepG2 cell line was incubated with 20 µL of the compounds in different concentrations (200–25 µg/mL) for 24 h in an atmosphere of 5% CO2 at 37 °C.
For the MTT assay, which evaluates mitochondrial viability, 20 µL of MTT solution (5 mg/mL) was added, and the plates were incubated for an additional 3 h. After incubation, the supernatant was carefully removed from the wells, followed by addition of 100 µL DMSO with thorough mixing. Optical densities at 570 and 630 nm (background) were determined by an ELISA reader.
Cell viability was expressed as the percentage of control absorbance obtained in untreated cells after subtracting the absorbance from appropriate background. Lastly, the minimum lethal dose for 50% of the cells (MLD50) was determined as previously described in the literature. The ratio between MLD50 and drug activity (IC50) in vitro was used to determine the selectivity index (SI).

[4] abbreviates: Erythrocyte, W2 clone, 0.05% parasitemia, 1.5% hematocrit.
Setting [5] is: Erythrocyte, W2 clone, 1% parasitemia, 1% hematocrit.

One may read the IC50 as the concentration needed to halve the response being measured.

Structures are written as SMILES. Where only a bound is given, the exact number is not on record here.

As for `FC(F)(F)c1cc(Nc2cc(Cl)cc(Cl)c2)n2nc(C(F)(F)F)nc2n1` [Compound 17, 7-(3,5-Dichlorophenylamine)-2,5-bis(trifluoromethyl)[1,2,4]triazolo[1,5-a]pyrimidine], the IC50 in data set [1] (setting [4]) amounted to 12.3 µM; in data set [2] (setting [5]) it was 23.4 µM. Also, the “MDL50 HepG2” value in data set [3] is 269 µM.

`Cc1cc(Nc2cccc(Cl)c2)n2nc(C(F)(F)F)nc2n1` [Compound 7, 7-(3-Chlorophenylamine)-5-methyl-2-(trifluoromethyl)[1,2,4]triazolo[1,5-a]pyrimidine]: the IC50 is 1.83 ± 1.1 µM in data set [1] (setting [4]) and 1.22 µM in data set [2] (setting [5]). Further, in data set [3], the “MDL50 HepG2” value is given as 373 µM.

`CCN(CC)CCCC(C)Nc1ccnc2cc(Cl)ccc12` (stereo not shown) [Chloroquine, reference compound]: the IC50 came out at 0.22 µM in data set [1] (W2, Erythrocyte) and 0.23 µM in data set [2] (W2, Erythrocyte). Further, the “MDL50 HepG2” value in data set [3] stood at 490 µM.

Turning to `Cc1cc(Nc2ccc(Cl)c(Cl)c2)n2nc(C(F)(F)F)nc2n1` [Compound 8, 7-(3,4-Dichlorophenylamine)-5-methyl-2-(trifluoromethyl)[1,2,4]triazolo[1,5-a]pyrimidine], the IC50 in data set [1] (setting [4]) is 0.55 ± 0.66 µM; in data set [2] (setting [5]), 0.11 ± 0.05 µM. In addition, the “MDL50 HepG2” value in data set [3] is >552 µM.

Turning to `CCN(CC)CCCC(C)Nc1cc(C)nc2ncnn12` (stereo not shown) [Compound 28, 5-Methyl-7-N'-(N,N-diethylpentane-1,4-diamine)[1,2,4]triazolo[1,5-a]pyrimidine], the half-inhibitory concentration (IC50) in data set [1] (setting [4]) and in data set [2] (setting [5]) was > 172 µM each time. For the same compound, in data set [1] (W2 clone), the “activity class against P. falciparum” value is listed as “Inactive”. Besides, in data set [3], the “MDL50 HepG2” value is >689 µM.

Regarding `Cc1cc(-n2cccc2)n2nc(C(F)(F)F)nc2n1` [Compound 27, 5-Methyl-7-(1H-pyrrol-1-yl)-2-(trifluoromethyl)[1,2,4]triazolo[1,5-a]pyrimidine], the values for the IC50 in data set [1] (setting [4]) and in data set [2] (setting [5]) were 97.4 ± 22.5 µM and 78.7 ± 7.49 µM, respectively. Moreover, in data set [1] (W2 clone), the “activity class against P. falciparum” value was “Inactive”. In data set [3], the “MDL50 HepG2” value is given as >749 µM.

For the compound `COc1cc(Nc2cc(C)nc3nc(C)nn23)cc(OC)c1` [Compound 14, 7-(3,5-Dimethoxyphenylamine)-2,5-dimethyl[1,2,4]triazolo[1,5-a]pyrimidine], the IC50 in data set [1] (setting [4]) amounted to 3.84 ± 0.4 µM; in data set [2] (setting [5]) it was 15.1 ± 10 µM. For the same compound, in data set [3], the “MDL50 HepG2” value is listed as 515 µM.

Regarding `Cc1cc(Nc2cccc3ccccc23)n2nc(C(F)(F)F)nc2n1` [Compound 4, 5-Methyl-7-(naphthalen-1-ylamine)-2-(trifluoromethyl)[1,2,4]triazolo[1,5-a]pyrimidine], the IC50 in data set [1] (setting [4]) came out at 2.2 µM. Further, the “MDL50 HepG2” value in data set [3] worked out at 326 µM.

As for `Cc1cc(Nc2ccccn2)n2nc(C(F)(F)F)nc2n1` [Compound 22, 5-Methyl-7-(pyridin-2-ylamine)-2-(trifluoromethyl)[1,2,4]triazolo[1,5-a]pyrimidine], the IC50 in data set [1] (setting [4]) was > 156 µM; in data set [2] (setting [5]), > 170 µM. Moreover, the “activity class against P. falciparum” value in data set [1] (W2 clone) is “Inactive”. Further, in data set [3], the “MDL50 HepG2” value is reported as 394 µM.

As for `Cc1cc(Nc2nc(C(F)(F)F)n[nH]2)n2nc(C(F)(F)F)nc2n1` [Compound 23, 5-Methyl-2-(trifluoromethyl)-7-(5-(trifluoromethyl)-3-amine-4H-1,2,4-triazolyl)[1,2,4]triazolo[1,5-a]pyrimidine], the IC50 in data set [1] (setting [4]) was 36.9 ± 11.4 µM; in data set [2] (setting [5]) it was 31.2 ± 17 µM. Moreover, the “activity class against P. falciparum” value in data set [1] (W2 clone) is reported as “Inactive”. The “MDL50 HepG2” value in data set [3] was <71 µM.

Take `Cc1cc(NC2CCCCC2)n2nc(C(F)(F)F)nc2n1` [Compound 18, 7-Cyclohexylamine-5-methyl-2-(trifluoromethyl)[1,2,4]triazolo[1,5-a]pyrimidine]: the IC50 was 8.69 ± 0.46 µM in data set [1] (setting [4]) and 10 µM in data set [2] (setting [5]). Further, the “MDL50 HepG2” value in data set [3] came out at 515 µM.

In the case of `COc1cc(Nc2cc(C)nc3nc(C(F)(F)F)nn23)cc(OC)c1` [Compound 12, 7-(3,5-Dimethoxyphenylamine)-5-methyl-2-(trifluoromethyl)[1,2,4]triazolo[1,5-a]pyrimidine], the IC50 in data set [1] (setting [4]) turned out to be 2.5 ± 0.05 µM; in data set [2] (setting [5]), 0.36 ± 0.1 µM. The “MDL50 HepG2” value in data set [3] is given as 498 µM.

As to `Cc1cc(-n2cccn2)n2nc(C(F)(F)F)nc2n1` [Compound 24, 5-Methyl-7-(1H-pyrazol-1-yl)-2-(trifluoromethyl)[1,2,4]triazolo[1,5-a]pyrimidine], the IC50 in data set [1] (setting [4]) was 2.1 µM. Moreover, in data set [3], the “MDL50 HepG2” value is >746 µM.

Take `COc1ccc(Nc2cc(C)nc3nc(C(F)(F)F)nn23)cc1` [Compound 11, 7-(4-Methoxyphenylamine)-5-methyl-2-(trifluoromethyl)[1,2,4]triazolo[1,5-a]pyrimidine]: the IC50 is 0.4 ± 0.09 µM in data set [1] (setting [4]) and 1.5 ± 1.2 µM in data set [2] (setting [5]). In data set [3], the “MDL50 HepG2” value is >619 µM.

As for `Cc1cc(-n2ccnc2)n2nc(C(F)(F)F)nc2n1` [Compound 25, 7-(1H-Imidazol-1-yl)-5-methyl-2-(trifluoromethyl)[1,2,4]triazolo[1,5-a]pyrimidine], the IC50 in data set [1] (setting [4]) was 21 ± 2 µM; in data set [2] (setting [5]), 15 ± 0.7 µM. The “MDL50 HepG2” value in data set [3] is listed as <93 µM.

For `Cc1cc(Nc2ccc(Cl)cc2Cl)n2nc(C(F)(F)F)nc2n1` [Compound 9, 7-(2,4-Dichlorophenylamine)-5-methyl-2-(trifluoromethyl)[1,2,4]triazolo[1,5-a]pyrimidine], the figures for the IC50 in data set [1] (setting [4]) and in data set [2] (setting [5]) were 2.7 ± 2.21 µM and 3.32 ± 1.1 µM, respectively. In data set [3], the “MDL50 HepG2” value came out at 320 µM.

Regarding `Cc1cc(N2CCOCC2)n2nc(C(F)(F)F)nc2n1` [Compound 19], the IC50 in data set [1] (setting [4]) and in data set [2] (setting [5]) was > 174 µM each time. Besides, the “activity class against P. falciparum” value in data set [1] (W2 clone) is given as “Inactive”. Also, in data set [3], the “MDL50 HepG2” value is on record as >697 µM.

Take `Cc1cc(Nc2ccc3ccccc3c2)n2nc(C(F)(F)F)nc2n1` [Compound 5, 5-Methyl-7-(naphthalen-2-ylamine)-2-(trifluoromethyl)[1,2,4]triazolo[1,5-a]pyrimidine]: the IC50 in data set [1] (setting [4]) came out at 0.023 ± 0.002 µM. In addition, the “MDL50 HepG2” value in data set [3] amounted to 425 µM.

Regarding `CCN(CC)CCCC(C)Nc1cc(C)nc2nc(C(F)(F)F)nn12` (stereo not shown) [Compound 29, 5-Methyl-7-N'-(N,N-diethylpentane-1,4-diamine)-2-(trifluoromethyl)[1,2,4]triazolo[1,5-a]pyrimidine], the figures for the half-inhibitory concentration (IC50) in data set [1] (setting [4]) and in data set [2] (setting [5]) were 73 ± 17 µM and 39.1 µM, respectively. In data set [1] (W2 clone), the “activity class against P. falciparum” value is given as “Inactive”. In addition, the “MDL50 HepG2” value in data set [3] is listed as >558 µM.

Regarding `Cc1cc(Nc2cc(Cl)cc(Cl)c2)n2nc(C(F)(F)F)nc2n1` [Compound 13, 7-(3,5-Dichlorophenylamine)-5-methyl-2-(trifluoromethyl)[1,2,4]triazolo[1,5-a]pyrimidine], the IC50 in data set [1] (setting [4]) was 1.47 ± 0.11 µM; in data set [2] (setting [5]) it was 0.83 ± 0.58 µM. In addition, the “MDL50 HepG2” value in data set [3] was 320 µM.

For the compound `Cc1cc(Nc2ccccc2)n2nc(C(F)(F)F)nc2n1` [Compound 6, 5-Methyl-7-phenylamine-2-(trifluoromethyl)[1,2,4]triazolo[1,5-a]pyrimidine], the values for the IC50 in data set [1] (setting [4]) and in data set [2] (setting [5]) were 3 ± 2 µM and 10.2 ± 5 µM, respectively. Also, the “MDL50 HepG2” value in data set [3] is on record as >682 µM.

On to `Cc1cc(N2CCN(C)CC2)n2nc(C(F)(F)F)nc2n1` [Compound 20, 5-Methyl-7-(4-methylpiperazin-1-yl)-2-(trifluoromethyl)[1,2,4]triazolo[1,5-a]pyrimidine], for which the figures for the half-inhibitory concentration (IC50) in data set [1] (setting [4]) and in data set [2] (setting [5]) were 39 ± 17 µM and 57 ± 13 µM, respectively. The “activity class against P. falciparum” value in data set [1] (W2 clone) is “Inactive”. Besides, the “MDL50 HepG2” value in data set [3] is on record as >666 µM.
